Source: PMC7440915, “Discovery of surrogate agonists for visceral fat Treg cells that modulate metabolic indices in vivo” (eLife, 2020)
Where no end group is shown, it is not given here.

System: vTreg53 Treg cells
Test: Proliferation and activation of primary vTreg53 TCR-tg Treg cells in vitro
Format: cell-based, mouse
Conditions: 3 days; for potency on primary vTreg53 Treg cells: in vitro; for proliferation: compared with no peptide / other SPs
Text: Figure 4. SPs induce proliferation and activation of vTreg53 Treg cells in vitro and in vivo. (A–D) Proliferation and activation of vTreg53 Treg cells by different concentrations of SPs for 3 days in vitro (n = 3). (A) Representative flow cytometric plot of cell division. (B) Summary of cell proliferation. (C) Mean flourescence intensity (MFI) of CD44 staining in clonotype^+ Treg cells. (D) MFI of CD62L staining in clonotype^+ Treg cells. (E) Proliferation of transferred CD45.2^+ vTreg53 Treg cells in the spleen of CD45.1^+ B6 recipient mice immunized s.c. with CFA or CFA/Fat1562 at day 3 (n = 3). (F) Expansion of transferred CD45.2^+ vTreg53 Treg cells in the Spl/LNs or VAT of CD45.1^+ B6 recipient mice that were primed with CFA/fat1562 s.c. and boosted with IFA/Fat1562 i.p. (n ≥ 3). Data are mean ± SD. Data shown are representative of at least two independent experiments. Figure 4—figure supplement 1. Single cell TCR sequencing (scTCR-seq) analyses of fat1562-reactive endogenous Treg cells following immunization. (A) Scheme of the experiment. (B) Flow cytometric analysis of fat1562/A^b -PE tetramer+ Treg cells in Spl/LNs (enriched by anti-PE beads) or VAT (not enriched) of mice immunized with adjuvant alone or adjuvant/fat1562. Plot is a representative of mice that did show detectable expansion of tetramer+ Tregs. (C) Numbers of fat1562/A^b -PE tetramer+ Treg cells in Spl/LNs or VAT of mice immunized with adjuvant alone or adjuvant/fat1562 (D) Summary of the frequency and CDR3 sequences of expanded fat1562/A^b -PE tetramer+ Treg clones. [drawing 5] TEXT PRINTED IN THE PICTURE: (A) Fat7: 51 (1μM); 32.1 (0.1μM); 16.4 (0.01μM) | (A) Fat15: 59.7 (1μM); 54.4 (0.1μM); 37.1 (0.01μM) | (A) Fat1562: 61.6 (1μM); 57.6 (0.1μM); 51.8 (0.01μM) | (A) Fat2564: 44.2 (1μM); 32.5 (0.1μM); 19.3 (0.01μM) | (E) CFA: 9.6 | (E) CFA/Fat1562: 76.8 | (F) adjuvant: 0.1 (Spl/LN); 1.5 (VAT) | (F) adjuvant/Fat1562: 0.7 (Spl/LN); 38.1 (VAT) DOUBTS OF THE COPYIST ABOUT THIS PICTURE: Panels A, E, F: the gate numbers in the flow cytometry plots are printed without a measure or unit; they are copied as bare numbers. / Panel A: the row 'no peptide' (15.7, 17.1, 17.2) is a control without a substance and was left out. / Panel A, Fat1562, 1μM: the number is crossed by the histogram line; 61.6 is the best reading. / Panel E, CFA/Fat1562: the number is crossed by the histogram line; 76.8 is the best reading.
Tregs from pooled LNs of Tg^+ Foxp3-GFP^KI/y mice were labeled with CellTrace Violet dye (ThermoFisher Scientific), cultured in complete RPMI medium in the presence of 100 U/ml recombinant mouse IL-2 (peprotech), and stimulated by syngeneic APCs loaded with the indicated concentrations of different peptides. 3 days later, the proliferation and activation of clonotype^+ Treg cells was determined by flow cytometric analysis of the dilution of the CellTrace Violet dye, upregulation of CD44 expression, and downregulation of CD62L levels.

Sequence	potency on primary vTreg53 Treg cells	CD44 up-regulation (0.01 µM, compared with no peptide)	proliferation (0.01 µM)	CD62L down-regulation (1 µM, n = 3)	CD62L down-regulation (0.01 µM)
TMYKNLRPWAATG [Fat2564]	relatively weak potency, which was comparable with that of Fat7				
LMFKGPHAVQAVG [Fat7]		unable to promote any further proliferation and up-regulation of CD44 expression	unable to promote any further proliferation	dampened CD62L levels only moderately	
TMYKNPRPMAATG [Fat1562]	consistently the strongest SP		strongest proliferation	strongest down-regulation of CD62L	strongest proliferation and down-regulation of CD62L
